Data on eleven molecules can be found in patent publication US20050282743A1, “Molecular interactions in cells” (Arbor Vita Corporation, priority 2001, published 2005).

Ends that are not written are not given here. Peptide text beside a SMILES is read from it. * marks the point of attachment. Biotin = O=C1N[C@H]2[C@H](CS[C@H]2CCCCC(=O)*)N1

What all share (assay): G' assay (10 uM PL peptide), results of TABLE 7 and TABLE 12
What all share (type): binding

Test [1] has as its target T1, PDZ protein (GST-PDZ fusion) (Homo sapiens, UniProt Q86UL8).
T1 construct: made in house; host or cells: E. coli (DH5alpha, BL21 or JM109)
In short, it runs like this: (§1)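 Same steps as the G-zero format, apart from a peptide concentration of 10 uM in place of 20 uM in step 2. Amino-terminally biotinylated PL peptides bind GST-PDZ fusions, and retained peptide is quantified by 450 nm absorbance.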

The target of test [2] is T2, PDZ protein (GST-PDZ fusion) (Homo sapiens, UniProt O15018).
T2 construct: made in house; host or cells: E. coli (DH5alpha, BL21 or JM109)
T2 sequence (O15018 whole entry, the tested form may be a part): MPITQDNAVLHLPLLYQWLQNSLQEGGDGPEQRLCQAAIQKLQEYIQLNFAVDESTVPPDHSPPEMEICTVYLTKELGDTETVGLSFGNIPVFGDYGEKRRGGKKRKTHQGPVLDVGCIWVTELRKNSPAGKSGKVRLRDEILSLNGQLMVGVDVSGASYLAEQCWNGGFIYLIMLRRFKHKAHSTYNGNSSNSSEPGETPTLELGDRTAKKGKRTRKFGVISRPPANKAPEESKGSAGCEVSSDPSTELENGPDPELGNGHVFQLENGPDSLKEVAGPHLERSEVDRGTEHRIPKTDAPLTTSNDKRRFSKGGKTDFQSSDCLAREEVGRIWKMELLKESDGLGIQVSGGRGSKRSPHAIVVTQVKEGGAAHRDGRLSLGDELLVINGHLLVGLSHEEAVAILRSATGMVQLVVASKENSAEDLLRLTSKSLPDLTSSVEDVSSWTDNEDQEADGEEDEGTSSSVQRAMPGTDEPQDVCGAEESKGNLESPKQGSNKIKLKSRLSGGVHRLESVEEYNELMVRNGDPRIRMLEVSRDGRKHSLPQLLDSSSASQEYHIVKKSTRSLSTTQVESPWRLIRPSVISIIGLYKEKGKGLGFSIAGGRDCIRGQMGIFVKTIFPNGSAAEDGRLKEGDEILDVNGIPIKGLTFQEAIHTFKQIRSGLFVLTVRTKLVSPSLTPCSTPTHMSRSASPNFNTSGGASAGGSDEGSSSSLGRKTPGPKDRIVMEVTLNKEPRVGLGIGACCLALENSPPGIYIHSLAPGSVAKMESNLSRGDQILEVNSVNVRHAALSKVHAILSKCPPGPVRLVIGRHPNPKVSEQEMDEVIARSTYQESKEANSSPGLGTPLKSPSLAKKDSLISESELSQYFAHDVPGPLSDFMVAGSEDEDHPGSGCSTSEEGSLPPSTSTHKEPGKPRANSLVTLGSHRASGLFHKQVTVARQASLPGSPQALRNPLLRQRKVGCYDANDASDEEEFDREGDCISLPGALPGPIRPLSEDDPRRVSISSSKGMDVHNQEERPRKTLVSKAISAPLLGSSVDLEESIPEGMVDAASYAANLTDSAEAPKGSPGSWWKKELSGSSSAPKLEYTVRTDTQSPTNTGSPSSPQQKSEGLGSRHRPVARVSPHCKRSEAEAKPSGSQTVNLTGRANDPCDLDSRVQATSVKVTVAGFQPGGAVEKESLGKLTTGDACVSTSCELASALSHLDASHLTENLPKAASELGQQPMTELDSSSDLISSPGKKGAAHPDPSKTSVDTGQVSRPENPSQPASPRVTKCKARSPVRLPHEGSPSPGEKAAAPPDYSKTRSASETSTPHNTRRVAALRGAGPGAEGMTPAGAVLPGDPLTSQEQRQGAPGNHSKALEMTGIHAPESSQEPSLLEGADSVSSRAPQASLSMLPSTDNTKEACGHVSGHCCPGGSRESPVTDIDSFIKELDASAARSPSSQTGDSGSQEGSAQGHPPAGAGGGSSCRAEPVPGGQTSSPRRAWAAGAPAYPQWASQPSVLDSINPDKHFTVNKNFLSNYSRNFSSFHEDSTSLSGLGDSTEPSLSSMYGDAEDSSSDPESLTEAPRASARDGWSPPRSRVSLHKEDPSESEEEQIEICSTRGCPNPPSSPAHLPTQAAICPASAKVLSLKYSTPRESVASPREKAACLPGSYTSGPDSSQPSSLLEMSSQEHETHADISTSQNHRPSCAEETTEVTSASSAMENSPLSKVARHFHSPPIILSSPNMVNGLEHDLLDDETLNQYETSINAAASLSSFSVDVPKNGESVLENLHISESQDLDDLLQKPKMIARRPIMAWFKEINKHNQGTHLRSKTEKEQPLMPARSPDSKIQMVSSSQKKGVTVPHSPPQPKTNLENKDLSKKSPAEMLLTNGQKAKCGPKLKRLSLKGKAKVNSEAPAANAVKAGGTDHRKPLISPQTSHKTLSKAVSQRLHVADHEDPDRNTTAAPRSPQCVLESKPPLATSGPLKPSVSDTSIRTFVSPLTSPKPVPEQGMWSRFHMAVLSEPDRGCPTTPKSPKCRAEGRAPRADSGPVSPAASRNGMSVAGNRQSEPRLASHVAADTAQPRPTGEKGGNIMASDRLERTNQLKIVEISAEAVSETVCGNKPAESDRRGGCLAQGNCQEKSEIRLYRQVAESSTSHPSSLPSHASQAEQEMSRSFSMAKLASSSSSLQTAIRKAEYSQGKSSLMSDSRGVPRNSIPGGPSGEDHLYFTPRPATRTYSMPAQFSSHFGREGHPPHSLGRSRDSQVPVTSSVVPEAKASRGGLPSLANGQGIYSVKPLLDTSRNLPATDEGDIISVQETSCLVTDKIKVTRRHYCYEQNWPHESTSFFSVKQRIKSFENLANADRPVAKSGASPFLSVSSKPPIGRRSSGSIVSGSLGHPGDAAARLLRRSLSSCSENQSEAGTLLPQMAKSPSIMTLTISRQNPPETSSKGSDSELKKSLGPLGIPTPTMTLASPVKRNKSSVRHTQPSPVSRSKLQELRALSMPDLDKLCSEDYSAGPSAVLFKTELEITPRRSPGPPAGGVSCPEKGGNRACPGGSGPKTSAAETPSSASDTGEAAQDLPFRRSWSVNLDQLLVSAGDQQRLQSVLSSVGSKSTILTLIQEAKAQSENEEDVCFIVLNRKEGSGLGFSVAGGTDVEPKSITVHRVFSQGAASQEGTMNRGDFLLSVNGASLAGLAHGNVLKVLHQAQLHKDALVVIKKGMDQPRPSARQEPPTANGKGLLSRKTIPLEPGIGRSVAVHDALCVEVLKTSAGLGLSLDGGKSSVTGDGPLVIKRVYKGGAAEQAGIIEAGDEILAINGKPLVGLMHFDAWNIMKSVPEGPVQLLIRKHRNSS
In short, it runs like this:
as §1

The target of test [3] is T3, PDZ protein (GST-PDZ fusion) (Homo sapiens, UniProt Q8NI35).
T3 construct: made in house; host or cells: E. coli (DH5alpha, BL21 or JM109)
The note with it: PDZ INADL. An outline of the steps:
as §1

For test [4], the target named is T4, PDZ protein (GST-PDZ fusion) (Homo sapiens, UniProt Q92796).
T4 construct: made in house; host or cells: E. coli (DH5alpha, BL21 or JM109)
T4 sequence (Q92796 1-817): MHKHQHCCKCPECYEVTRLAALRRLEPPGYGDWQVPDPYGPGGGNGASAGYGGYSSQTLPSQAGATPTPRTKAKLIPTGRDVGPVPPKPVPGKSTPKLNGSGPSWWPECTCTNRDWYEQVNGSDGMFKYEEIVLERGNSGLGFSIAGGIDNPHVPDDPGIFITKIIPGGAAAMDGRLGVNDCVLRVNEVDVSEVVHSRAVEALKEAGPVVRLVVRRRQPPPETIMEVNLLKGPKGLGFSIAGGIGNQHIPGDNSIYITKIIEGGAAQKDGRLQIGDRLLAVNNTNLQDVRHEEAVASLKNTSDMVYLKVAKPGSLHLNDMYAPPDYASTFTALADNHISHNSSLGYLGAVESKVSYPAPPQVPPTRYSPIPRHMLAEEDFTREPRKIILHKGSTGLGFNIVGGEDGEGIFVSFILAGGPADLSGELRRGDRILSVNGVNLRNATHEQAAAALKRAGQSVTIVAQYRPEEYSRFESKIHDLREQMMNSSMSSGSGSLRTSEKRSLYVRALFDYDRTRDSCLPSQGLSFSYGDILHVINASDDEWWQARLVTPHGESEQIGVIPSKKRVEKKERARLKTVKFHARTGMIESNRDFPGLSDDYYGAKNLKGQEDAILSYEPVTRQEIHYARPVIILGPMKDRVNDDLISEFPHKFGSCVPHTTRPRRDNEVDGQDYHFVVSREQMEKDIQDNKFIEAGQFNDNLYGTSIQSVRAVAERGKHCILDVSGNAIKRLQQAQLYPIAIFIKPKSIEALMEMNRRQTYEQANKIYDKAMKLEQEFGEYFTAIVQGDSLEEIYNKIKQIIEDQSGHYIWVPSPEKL
The note with it: PDZ NeDLG. In short, it runs like this:
as §1

Test [5] addresses T5, PDZ protein (GST-PDZ fusion) (Homo sapiens, UniProt P78352).
T5 construct: made in house; host or cells: E. coli (DH5alpha, BL21 or JM109)
Particulars: PDZ PSD95, PDZ Domain 1, 2, 3. An outline of the steps:
as §1

Test [6] has as its target T6, PDZ protein (GST-PDZ fusion) (Homo sapiens, UniProt Q12959).
T6 construct: made in house; host or cells: E. coli (DH5alpha, BL21 or JM109)
The note with it: PDZ DLG1, PDZ Domain 1, 2. In short, it runs like this:
as §1

Where [7] appears, read: PDZ Atrophin-1 Inter. Prot., PDZ Domain 5.
The mark [8] stands for this setting: PDZ atrophin-1 interacting Protein, PDZ Domain 1.

T1 sequence (Q86UL8 whole entry, the tested form may be a part): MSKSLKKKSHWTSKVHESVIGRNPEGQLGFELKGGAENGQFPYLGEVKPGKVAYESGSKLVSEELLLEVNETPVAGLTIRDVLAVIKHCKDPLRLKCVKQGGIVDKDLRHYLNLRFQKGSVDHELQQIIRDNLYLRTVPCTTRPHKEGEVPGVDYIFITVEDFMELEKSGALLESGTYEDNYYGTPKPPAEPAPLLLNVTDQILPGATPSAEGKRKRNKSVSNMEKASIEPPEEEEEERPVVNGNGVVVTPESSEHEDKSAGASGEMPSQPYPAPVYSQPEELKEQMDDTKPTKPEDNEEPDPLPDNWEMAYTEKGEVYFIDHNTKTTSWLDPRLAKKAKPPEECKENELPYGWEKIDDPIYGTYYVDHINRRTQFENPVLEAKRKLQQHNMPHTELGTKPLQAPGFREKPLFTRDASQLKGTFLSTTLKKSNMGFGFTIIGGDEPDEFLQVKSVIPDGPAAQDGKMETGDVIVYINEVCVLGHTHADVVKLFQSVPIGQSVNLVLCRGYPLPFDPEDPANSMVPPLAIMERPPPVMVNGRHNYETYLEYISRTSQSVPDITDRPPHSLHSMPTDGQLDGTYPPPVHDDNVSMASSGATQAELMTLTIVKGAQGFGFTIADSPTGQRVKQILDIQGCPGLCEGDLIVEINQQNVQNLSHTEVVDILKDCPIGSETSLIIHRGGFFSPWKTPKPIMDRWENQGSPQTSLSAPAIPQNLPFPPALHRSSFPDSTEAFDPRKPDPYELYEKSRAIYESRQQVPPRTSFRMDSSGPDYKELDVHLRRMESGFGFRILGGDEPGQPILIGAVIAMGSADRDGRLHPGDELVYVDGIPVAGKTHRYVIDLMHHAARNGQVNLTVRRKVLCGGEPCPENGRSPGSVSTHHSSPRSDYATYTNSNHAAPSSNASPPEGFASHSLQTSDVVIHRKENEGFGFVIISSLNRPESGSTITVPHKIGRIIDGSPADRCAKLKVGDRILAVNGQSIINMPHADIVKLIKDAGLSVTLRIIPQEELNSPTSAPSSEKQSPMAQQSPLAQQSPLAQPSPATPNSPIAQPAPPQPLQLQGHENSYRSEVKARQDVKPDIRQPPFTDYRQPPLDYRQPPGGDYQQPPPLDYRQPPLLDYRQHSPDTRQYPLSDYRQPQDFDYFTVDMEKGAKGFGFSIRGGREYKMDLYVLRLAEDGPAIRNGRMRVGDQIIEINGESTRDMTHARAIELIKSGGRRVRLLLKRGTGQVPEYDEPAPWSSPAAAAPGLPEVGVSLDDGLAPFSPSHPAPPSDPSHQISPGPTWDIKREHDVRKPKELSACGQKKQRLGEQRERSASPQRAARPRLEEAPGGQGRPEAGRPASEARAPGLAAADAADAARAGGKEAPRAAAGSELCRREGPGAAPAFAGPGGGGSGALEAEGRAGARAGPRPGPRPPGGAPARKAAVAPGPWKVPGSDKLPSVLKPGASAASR
T5 sequence (P78352 whole entry, the tested form may be a part): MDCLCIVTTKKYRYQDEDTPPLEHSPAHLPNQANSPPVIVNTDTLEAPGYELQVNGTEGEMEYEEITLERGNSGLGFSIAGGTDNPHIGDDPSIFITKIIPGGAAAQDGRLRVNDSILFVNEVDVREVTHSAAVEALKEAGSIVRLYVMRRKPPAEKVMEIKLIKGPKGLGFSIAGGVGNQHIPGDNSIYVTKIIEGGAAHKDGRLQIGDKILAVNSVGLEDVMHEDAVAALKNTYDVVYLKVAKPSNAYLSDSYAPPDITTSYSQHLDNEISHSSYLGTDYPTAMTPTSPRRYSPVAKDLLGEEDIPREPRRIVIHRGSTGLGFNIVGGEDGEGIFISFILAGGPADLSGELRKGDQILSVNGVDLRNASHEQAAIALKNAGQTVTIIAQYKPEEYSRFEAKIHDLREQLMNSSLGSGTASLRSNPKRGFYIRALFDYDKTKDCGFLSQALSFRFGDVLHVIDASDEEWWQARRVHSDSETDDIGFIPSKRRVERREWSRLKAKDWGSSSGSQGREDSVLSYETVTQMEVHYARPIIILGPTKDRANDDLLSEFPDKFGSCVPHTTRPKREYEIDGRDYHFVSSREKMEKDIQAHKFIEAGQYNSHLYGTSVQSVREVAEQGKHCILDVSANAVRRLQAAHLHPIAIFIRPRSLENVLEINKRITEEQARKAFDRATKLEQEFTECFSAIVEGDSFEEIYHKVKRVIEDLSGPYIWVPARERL

Take `CC[C@H](C)[C@H](NC(=O)[C@H](CCC(N)=O)NC(=O)[C@@H](NC(=O)[C@H](Cc1c[nH]cn1)NC(=O)[C@H](CCC(N)=O)NC(=O)[C@H](CC(=O)O)NC(=O)[C@H](CCC(=O)O)NC(=O)[C@H](CC(=O)O)NC(=O)[C@H](Cc1ccccc1)NC(=O)[C@@H]1CCCN1C(=O)[C@H](CCC(=O)O)NC(=O)[C@H](CC(N)=O)NC(=O)[C@H](CCC(=O)O)NC(=O)[C@@H]1CCCN1C(=O)[C@H](CC(=O)O)NC(=O)[C@H](CO)NC(=O)[C@H](CC(=O)O)NC(=O)CCCC[C@@H]1SC[C@@H]2NC(=O)N[C@@H]21)[C@@H](C)O)C(=O)N[C@H](C(=O)N[C@@H](CCCCN)C(=O)N[C@H](C(=O)O)C(C)C)[C@@H](C)O` [PTEN]: the Classification in test [1] (setting [7]) was 2 (A450 nm 1-2); in test [2] (PDZ AIPC, PDZ Domain 1) it was 1 (A450 nm 0-1); in test [3] (PDZ Domain 8) it was 1 (A450 nm 0-1).

With `CC[C@H](C)[C@H](NC(=O)[C@H](CC(=O)O)NC(=O)[C@H](CCC(=O)O)NC(=O)[C@H](CCCNC(=N)N)NC(=O)[C@@H](NC(=O)CCCC[C@@H]1SC[C@@H]2NC(=O)N[C@@H]21)[C@@H](C)O)C(=O)N[C@@H](Cc1ccc(O)cc1)C(=O)N[C@H](C(=O)N[C@@H](CC(N)=O)C(=O)N[C@@H](Cc1ccc(O)cc1)C(=O)N1CCC[C@H]1C(=O)N[C@H](C(=O)N[C@@H](Cc1ccccc1)C(=O)N[C@@H](CO)C(=O)N[C@@H](CCCNC(=N)N)C(=O)N[C@@H](CCCNC(=N)N)C(=O)N1CCC[C@H]1C(=O)N[C@@H](CCCCN)C(=O)N[C@H](C(=O)N[C@@H](CCCNC(=N)N)C(=O)N[C@H](C(=O)O)C(C)C)[C@@H](C)O)[C@@H](C)O)C(C)C` [DNAM-1] (Biotin-TREDIYVNYPTFSRRPKTRV-OH; C-terminus assumed), the results for the Classification in test [1] (setting [8]) and in test [3] (PDZ Domain 8) were 3 (A450 nm 2-3) and 5 (A450 nm of 4 more than 2× repeated), respectively.

Regarding `CC[C@H](C)[C@H](NC(=O)[C@H](Cc1c[nH]cn1)NC(=O)[C@H](C)NC(=O)[C@H](C)NC(=O)[C@H](CO)NC(=O)[C@@H]1CCCN1C(=O)[C@H](CCCNC(=N)N)NC(=O)[C@H](CC(=O)O)NC(=O)[C@H](CCCCN)NC(=O)[C@@H]1CCCN1C(=O)[C@H](CC(=O)O)NC(=O)[C@H](CCC(=O)O)NC(=O)CCCC[C@@H]1SC[C@@H]2NC(=O)N[C@@H]21)C(=O)N[C@H](C(=O)N[C@@H](CCC(=O)O)C(=O)N[C@@H](C)C(=O)N[C@@H](CC(C)C)C(=O)N[C@@H](CCC(=O)O)C(=O)N[C@H](C(=O)N[C@@H](CC(=O)O)C(=O)N[C@H](C(=O)O)C(C)C)[C@@H](C)O)C(C)C` [PDZ-binding kinase (PBK)] (Biotin-EDPKDRPSAAHIVEALETDV-OH; C-terminus assumed), the Classification in test [1] (setting [7]) is on record as 1 (A450 nm 0-1); in test [4] (PDZ Domain 1, 2), 1 (A450 nm 0-1); in test [5] it was 1 (A450 nm 0-1); in test [6], 1 (A450 nm 0-1).

Take “SLKPGTVLPPPPYRHRNTVV (Biotin-SLKPGTVLPPPPYRHRNTVV) [ErbB-4 receptor]”: the Classification is listed as 1 (A450 nm 0-1) in test [4] (PDZ Domain 1, 2); 1 (A450 nm 0-1) in test [5]; 1 (A450 nm 0-1) in test [6].

As to “RNIEEVYVGGKQVVPFSSSV (Biotin-RNIEEVYVGGKQVVPFSSSV) [Nedasin (s-form)]”, the Classification was 2 (A450 nm 1-2) in test [4] (PDZ Domain 1, 2); 3 (A450 nm 2-3) in test [5]; 1 (A450 nm 0-1) in test [3] (PDZ Domain 8); 3 (A450 nm 2-3) in test [6].

For the molecule “GPVPGEPAKPKTSAHHATFV (Biotin-GPVPGEPAKPKTSAHHATFV)”, the Classification in test [6] was 1 (A450 nm 0-1).

For the molecule “KTMPAAMFRLLTGQETPLYI (Biotin-KTMPAAMFRLLTGQETPLYI) [MINT-2]”, the Classification in test [2] (PDZ AIPC, PDZ Domain 1) is listed as 1 (A450 nm 0-1); in test [2] (PDZ KIAA0300, PDZ Domain 1), 3 (A450 nm 2-3).

Take `CC[C@H](C)[C@H](NC(=O)[C@H](Cc1ccc(O)cc1)NC(=O)[C@H](CC(C)C)NC(=O)[C@H](CCC(N)=O)NC(=O)[C@H](Cc1c[nH]cn1)NC(=O)[C@H](CO)NC(=O)[C@H](C)NC(=O)[C@H](CC(C)C)NC(=O)[C@@H](NC(=O)[C@H](CC(=O)O)NC(=O)[C@H](CCSC)NC(=O)[C@H](Cc1ccccc1)NC(=O)[C@@H]1CCCN1C(=O)[C@H](CCCNC(=N)N)NC(=O)[C@@H](NC(=O)[C@H](CC(C)C)NC(=O)[C@H](CC(N)=O)NC(=O)[C@H](CC(=O)O)NC(=O)[C@@H](NC(=O)[C@H](CO)NC(=O)CCCC[C@@H]1SC[C@@H]2NC(=O)N[C@@H]21)[C@@H](C)O)C(C)C)[C@@H](C)O)C(=O)O` [presenilin-2] (Biotin-STDNLVRPFMDTLASHQLYI-OH; C-terminus assumed): the Classification in test [1] (setting [7]) is on record as 1 (A450 nm 0-1); in test [2] (PDZ AIPC, PDZ Domain 1), 1 (A450 nm 0-1); in test [2] (PDZ AIPC, PDZ Domain 4), 1 (A450 nm 0-1); in test [2] (PDZ KIAA0300, PDZ Domain 1) it was 1 (A450 nm 0-1); in test [2] (PDZ KIAA0300, PDZ Domain 2) it was 1 (A450 nm 0-1); in test [3] (PDZ Domain 3), 1 (A450 nm 0-1).

For the molecule `CC[C@H](C)[C@H](NC(=O)[C@H](Cc1ccc(O)cc1)NC(=O)[C@@H](NC(=O)[C@@H]1CCCN1C(=O)[C@H](CCC(N)=O)NC(=O)[C@H](CCC(=O)O)NC(=O)[C@H](CCC(N)=O)NC(=O)[C@H](C)NC(=O)[C@@H](NC(=O)[C@H](CC(C)C)NC(=O)[C@H](CC(C)C)NC(=O)[C@H](CCCNC(=N)N)NC(=O)[C@H](Cc1ccc(O)cc1)NC(=O)[C@H](CCSC)NC(=O)[C@H](C)NC(=O)[C@H](C)NC(=O)[C@@H]1CCCN1C(=O)[C@H](CCSC)NC(=O)[C@@H](NC(=O)[C@H](CCCCN)NC(=O)CCCC[C@@H]1SC[C@@H]2NC(=O)N[C@@H]21)[C@@H](C)O)[C@@H](C)O)C(C)C)C(=O)O` [MINT-1] (Biotin-KTMPAAMYRLLTAQEQPVYI-OH; C-terminus assumed), the Classification was 1 (A450 nm 0-1) in test [2] (PDZ AIPC, PDZ Domain 1); 4 (A450 nm 3-4) in test [2] (PDZ KIAA0300, PDZ Domain 1); 1 (A450 nm 0-1) in test [3] (PDZ Domain 8).

Turning to `CC[C@H](C)[C@H](NC(=O)[C@H](C)NC(=O)[C@H](CC(C)C)NC(=O)[C@H](Cc1c[nH]c2ccccc12)NC(=O)[C@H](Cc1c[nH]cn1)NC(=O)[C@H](CCC(N)=O)NC(=O)[C@H](CC(C)C)NC(=O)[C@H](CCC(N)=O)NC(=O)[C@H](Cc1ccccc1)NC(=O)[C@H](CCC(N)=O)NC(=O)[C@H](CCCNC(=N)N)NC(=O)[C@@H](NC(=O)[C@H](CC(=O)O)NC(=O)[C@H](CCCNC(=N)N)NC(=O)[C@H](CCC(N)=O)NC(=O)[C@H](C)NC(=O)[C@@H](NC(=O)[C@H](CC(C)C)NC(=O)[C@H](Cc1c[nH]cn1)NC(=O)[C@H](Cc1c[nH]cn1)NC(=O)CCCC[C@@H]1SC[C@@H]2NC(=O)N[C@@H]21)C(C)C)[C@@H](C)CC)C(=O)O` [noradrenaline transporter] (Biotin-HHLVAQRDIRQFQLQHWLAI-OH; C-terminus assumed), the Classification in test [2] (PDZ AIPC, PDZ Domain 1) was 2 (A450 nm 1-2); in test [3] (PDZ Domain 3), 3 (A450 nm 2-3).

`CC(C)C[C@H](NC(=O)CNC(=O)[C@@H](NC(=O)[C@H](CO)NC(=O)[C@H](CC(N)=O)NC(=O)[C@H](Cc1ccccc1)NC(=O)CNC(=O)[C@H](C)NC(=O)[C@H](C)NC(=O)[C@H](Cc1ccccc1)NC(=O)[C@@H](NC(=O)CCCC[C@@H]1SC[C@@H]2NC(=O)N[C@@H]21)[C@@H](C)O)[C@@H](C)O)C(=O)N1CCC[C@H]1C(=O)N[C@@H](Cc1c[nH]cn1)C(=O)N[C@@H](CO)C(=O)N[C@H](C(=O)N[C@H](C(=O)N[C@@H](CCCNC(=N)N)C(=O)N[C@H](C(=O)O)C(C)C)[C@@H](C)O)[C@@H](C)O` [Neuroligin] (Biotin-TFAAGFNSTGLPHSTTRV-OH; C-terminus assumed): the Classification was 2 (A450 nm 1-2) in test [1] (setting [8]); 1 (A450 nm 0-1) in test [4] (PDZ Domain 1, 2); 1 (A450 nm 0-1) in test [4] (PDZ Domain 3); 2 (A450 nm 1-2) in test [5]; 1 (A450 nm 0-1) in test [3] (PDZ Domain 8); 2 (A450 nm 1-2) in test [6].
